Experimental data: US6399827B1, “Quaternary ammonium phosphate compound and method of preparing same” (SK Chemicals, priority 1997, dated 2002)

Key:
Type in all cases: cell-based
Fungi = assay: Biocidal effect test (MIC), fungi; conditions: serial dilution, 10^4 cfu/ml, 48 hours at 30° C., nutrient broth, turbidity read visually, range over 4 fungal strains; for MIC: read-out: Minimal Inhibition Concentration (ppm) fungi
Protocol: (§1) This test was carried out for the purpose of measuring a biocidal effect of the compounds obtained from examples 1, 3 and 4. A test material was diluted using a serial dilution method in a 96-multiwelled plate. 10^4 cfu/ml of microbes were inoculated in the diluted solution. After the microbes were cultivated for 48 hours at 30° C., MIC (Minimal Inhibition Concentration of microorganisms) was visually observed to decide whether or not microbial growth occurred from the turbidity. The growth medium was nutrient broth, DIFCO, and the strains used were as follows.
Penicillium citrinum ATCC 98404, Trichoderma viridae ATCC 1287, Rhizopus oryzae ATCC 10404 and Aspergillus niger ATCC 9642.

Bacteria = assay: Biocidal effect test (MIC), bacteria; conditions: serial dilution, 10^4 cfu/ml, 48 hours at 30° C., nutrient broth, turbidity read visually, range over 8 bacterial strains; for MIC: read-out: Minimal Inhibition Concentration (ppm) Bacteria
Protocol: as §1
Enterobacter aerogenes ATCC 13048, Escherichia coli ATCC 11229, Micrococcus luteus ATCC 9431, Pseudomonas aeruginosa ATCC 15442, Shigella sonnei ATCC 9290, Staphylococcus epidermis ATCC 155, Staphylococcus aureus ATCC 6538 and Bacillus subtilis ATCC 6984.

Yeasts = assay: Biocidal effect test (MIC), yeasts; conditions: serial dilution, 10^4 cfu/ml, 48 hours at 30° C., nutrient broth, turbidity read visually, range over 4 yeast strains; for MIC: Saccharomyces cerevisiae, read-out: Minimal Inhibition Concentration (ppm) yeasts
Protocol: as §1
Candida albicans ATCC 10231, Rhodotorula rubra ATCC 9449, Cryptococcus neoformans ATCC 34144 and Saccharomyces cerevisiae ATCC 9763.

Compound	MIC (Fungi) [µg/mL]	MIC (Bacteria) [µg/mL]	MIC (Yeasts) [µg/mL]	Minimal Inhibition Concentration (ppm) fungi (Fungi)	Minimal Inhibition Concentration (ppm) Bacteria (Bacteria)	Minimal Inhibition Concentration (ppm) yeasts (Yeasts)
CCCCCCCCCCCCCC[N+]1(Cc2ccccc2)CCOCC1.Cl.N.[Cl-] [B, 4-benzyl-4-tetradecyl morpholinium ammonium chloride]	25 to 100	6.3 to 12.5	6.3 to 25			
CC(C)(C)CC(C)(C)c1ccc(OCCOCC[N+](C)(C)Cc2ccccc2)cc1.O=P([O-])(O)O [example 1, N-dimethyl-N-[p-(α,α,γ,γ)-tetramethylbutylphenoxy]ethoxy ethyl-N-benzyl ammonium phosphate]				25˜100 ppm	6.3˜12.5 ppm	6.3˜12.5 ppm
CCCCCCCCCCCCCC[N+]1(Cc2ccccc2)CCOCC1.N.O=P([O-])(O)O [example 4, 4-benzyl-4-tetradecyl morpholinium ammonium phosphate]	25 to 100	6.3 to 12.5	12.5 to 25			
CC(C)(C)CC(C)(C)c1ccc(OCCOCC[N+](C)(C)Cc2ccccc2)cc1.[Cl-] [A, N-dimethyl-N-[p-(α,α,γ,γ)-tetramethylbutylphenoxy]ethoxy ethyl-N-benzyl chloride]				25˜100 ppm	12.5˜25 ppm	12.5˜25 ppm
